Data: ChEMBL document CHEMBL4184257, “Design, synthesis and antibacterial evaluation of honokiol derivatives” (2018)
In brackets after ≈: the same amount, converted by molar mass. Activity calls are given as the source filed them. The rule behind the calls is not given here.

How the values were obtained:
Staphylococcus aureus [1] = test: Antibacterial activity against Staphylococcus aureus ATCC 25923 incubated at 37 degC for 20 hrs by standard broth microdilution method; type: functional; conditions: ATCC 25923, 20 h
Escherichia coli = test: Antibacterial activity against Escherichia coli ATCC 25922 incubated at 37 degC for 20 hrs by standard broth microdilution method; type: functional; conditions: ATCC 25922, 20 h
Pseudomonas aeruginosa [2] = test: Antibacterial activity against Pseudomonas aeruginosa ATCC 27853 incubated at 37 degC for 20 hrs by agar dilution method; type: functional; conditions: ATCC 27853, 20 h
Pseudomonas aeruginosa [3] = test: Antibacterial activity against Pseudomonas aeruginosa ATCC 9027 incubated at 37 degC for 20 hrs by agar dilution method; type: functional; conditions: ATCC 9027, 20 h
Pseudomonas aeruginosa [4] = test: Antibacterial activity against Pseudomonas aeruginosa CMCC 10104 incubated at 37 degC for 20 hrs by agar dilution method; type: functional; conditions: CMCC 10104, 20 h
Klebsiella pneumoniae [5] = test: Antibacterial activity against Klebsiella pneumoniae ATCC 4352 incubated at 37 degC for 20 hrs by agar dilution method; type: functional; conditions: ATCC 4352, 20 h
Klebsiella pneumoniae [6] = test: Antibacterial activity against Klebsiella pneumoniae ATCC 700603 incubated at 37 degC for 20 hrs by agar dilution method; type: functional; conditions: ATCC 700603, 20 h
Klebsiella pneumoniae [7] = test: Antibacterial activity against Klebsiella pneumoniae CMCC 46117 incubated at 37 degC for 20 hrs by agar dilution method; type: functional; conditions: CMCC 46117, 20 h
Staphylococcus aureus [8] = test: Antibacterial activity against Staphylococcus aureus ATCC 29213 incubated at 37 degC for 20 hrs by agar dilution method; type: functional; conditions: ATCC 29213, 20 h
Staphylococcus aureus [9] = test: Antibacterial activity against Staphylococcus aureus ATCC 6538 incubated at 37 degC for 20 hrs by agar dilution method; type: functional; conditions: ATCC 6538, 20 h
Staphylococcus aureus [10] = test: Antibacterial activity against Staphylococcus aureus CMCC 26003 incubated at 37 degC for 20 hrs by agar dilution method; type: functional; conditions: CMCC 26003, 20 h
Staphylococcus aureus [11] = test: Antibacterial activity against Staphylococcus aureus ATCC 33591 incubated at 37 degC for 20 hrs by agar dilution method; type: functional; conditions: ATCC 33591, 20 h
Staphylococcus aureus [12] = test: Antibacterial activity against Staphylococcus aureus ATCC 43300 incubated at 37 degC for 20 hrs by agar dilution method; type: functional; conditions: ATCC 43300, 20 h
Streptococcus pyogenes = test: Antibacterial activity against Streptococcus pyogenes ATCC 19615 incubated at 37 degC for 20 hrs by agar dilution method; type: functional; conditions: ATCC 19615, 20 h
[13] = system: Staphylococcus epidermidis; test: Antibacterial activity against Staphylococcus albus AS1.3374 incubated at 37 degC for 20 hrs by agar dilution method; type: functional; conditions: AS1.3374, 20 h
[14] = system: Staphylococcus epidermidis; test: Antibacterial activity against Staphylococcus epidermidis ATCC 12228 incubated at 37 degC for 20 hrs by agar dilution method; type: functional; conditions: ATCC 12228, 20 h
Enterococcus faecalis [15] = test: Antibacterial activity against Enterococcus faecalis ATCC 33186 incubated at 37 degC for 20 hrs by agar dilution method; type: functional; conditions: ATCC 33186, 20 h
Enterococcus faecalis [16] = test: Antibacterial activity against Enterococcus faecalis ATCC 35667 incubated at 37 degC for 20 hrs by agar dilution method; type: functional; conditions: ATCC 35667, 20 h
Staphylococcus aureus [17] = test: Bacteriostatic activity against Staphylococcus aureus ATCC 25923 at 1 times MIC incubated for 24 hrs by time kill curve assay; type: functional, organism-based
Staphylococcus aureus [18] = test: Bactericidal activity against Staphylococcus aureus ATCC 25923 at 4 times MIC incubated for 24 hrs by time kill curve assay; type: functional, organism-based
Staphylococcus aureus [19] = test: Induction of cell wall destruction in Staphylococcus aureus ATCC 25923 at 1 times MIC incubated for 0.5 hrs Gram staining based assay; type: functional, organism-based
Staphylococcus aureus [20] = test: Induction of cell wall destruction in Staphylococcus aureus ATCC 25923 at 4 times MIC incubated for 1 hr Gram staining based assay; type: functional, organism-based
Staphylococcus aureus [21] = test: Bactericidal activity against Staphylococcus aureus ATCC 25923 assessed as bacterial load at 4 times MIC measured within 2 hrs post dose by time kill curve assay; type: functional
Staphylococcus aureus [22] = test: Bacteriostatic activity against Staphylococcus aureus ATCC 25923 assessed as bacterial load at 1 times MIC incubated for 24 hrs by time kill curve assay; type: functional
Staphylococcus aureus [23] = test: Antibacterial activity against Staphylococcus aureus; type: functional
Streptococcus mutans = test: Antibacterial activity against Streptococcus mutans; type: functional
Candida albicans = test: Antimicrobial activity against Candida albicans; type: functional

C=CCc1cc(CN2CCC(N3CCNCC3)CC2)c(O)c(-c2ccc(O)c(CC=C)c2)c1
MIC90 (Staphylococcus aureus [1]): 32 µg/mL (≈ 71.5 µM)
MIC90 (Escherichia coli): > 256 µg/mL

NC[C@H]1O[C@H](O[C@H]2[C@H](O)[C@@H](O[C@H]3O[C@H](CO)[C@@H](O)[C@H](N)[C@H]3O)[C@H](N)C[C@@H]2N)[C@H](N)C[C@@H]1O [TOBRAMYCIN]
MIC (Escherichia coli): 0.25 µg/mL (≈ 0.535 µM)
MIC (Pseudomonas aeruginosa [2]): 0.25 µg/mL (≈ 0.535 µM)
MIC (Pseudomonas aeruginosa [3]): 0.5 µg/mL (≈ 1.07 µM)
MIC (Pseudomonas aeruginosa [4]): 2 µg/mL (≈ 4.28 µM)
MIC (Klebsiella pneumoniae [5]): 1 µg/mL (≈ 2.14 µM)
MIC (Klebsiella pneumoniae [6]): 4 µg/mL (≈ 8.56 µM)
MIC (Klebsiella pneumoniae [7]): 0.25 µg/mL (≈ 0.535 µM)

C=CCc1cc(CN2CCC(N3CCCC(N)C3)CC2)c(O)c(-c2ccc(O)c(CC=C)c2)c1 (stereo not drawn)
MIC (Staphylococcus aureus [1]): 16 µg/mL (≈ 34.7 µM)
MIC90 (Staphylococcus aureus [1]): 16 µg/mL (≈ 34.7 µM)
MIC (Escherichia coli): 128 µg/mL (≈ 277 µM)
MIC90 (Escherichia coli): 128 µg/mL (≈ 277 µM)
MIC (Staphylococcus aureus [8]): 16 µg/mL (≈ 34.7 µM)
MIC (Staphylococcus aureus [9]): 16 µg/mL (≈ 34.7 µM)
MIC (Staphylococcus aureus [10]): 16 µg/mL (≈ 34.7 µM)
MIC (Staphylococcus aureus [11]): 16 µg/mL (≈ 34.7 µM)
MIC (Staphylococcus aureus [12]): 16 µg/mL (≈ 34.7 µM)
MIC (Streptococcus pyogenes): 32 µg/mL (≈ 69.3 µM)
MIC [13]: 16 µg/mL (≈ 34.7 µM)
MIC [14]: 16 µg/mL (≈ 34.7 µM)
MIC (Enterococcus faecalis [15]): 16 µg/mL (≈ 34.7 µM)
MIC (Enterococcus faecalis [16]): 16 µg/mL (≈ 34.7 µM)
MIC (Pseudomonas aeruginosa [2]): > 256 µg/mL
MIC (Pseudomonas aeruginosa [3]): > 256 µg/mL
MIC (Pseudomonas aeruginosa [4]): 64 µg/mL (≈ 139 µM)
MIC (Klebsiella pneumoniae [5]): 16 µg/mL (≈ 34.7 µM)
MIC (Klebsiella pneumoniae [6]): > 256 µg/mL
MIC (Klebsiella pneumoniae [7]): 32 µg/mL (≈ 69.3 µM)

C=CCc1cc(CN2CCN(CCOC)CC2)c(O)c(-c2ccc(O)c(CC=C)c2)c1
MIC90 (Staphylococcus aureus [1]): > 256 µg/mL
MIC90 (Escherichia coli): > 256 µg/mL

CC(=O)NC[C@H]1CN(c2ccc(N3CCOCC3)c(F)c2)C(=O)O1 [LINEZOLID]
MIC90 (Staphylococcus aureus [1]): 2 µg/mL (≈ 5.93 µM)
MIC90 (Escherichia coli): > 256 µg/mL
MIC (Streptococcus pyogenes): 0.5 µg/mL (≈ 1.48 µM)
MIC [13]: 2 µg/mL (≈ 5.93 µM)
MIC [14]: 2 µg/mL (≈ 5.93 µM)
Activity (Staphylococcus aureus [17]): Active
Activity (Staphylococcus aureus [18]): Active

CN[C@H](CC(C)C)C(=O)N[C@H]1C(=O)N[C@@H](CC(N)=O)C(=O)N[C@H]2C(=O)N[C@H]3C(=O)N[C@H](C(=O)N[C@H](C(=O)O)c4cc(O)cc(O)c4-c4cc3ccc4O)[C@H](O)c3ccc(c(Cl)c3)Oc3cc2cc(c3O[C@@H]2O[C@H](CO)[C@@H](O)[C@H](O)[C@H]2O[C@H]2C[C@](C)(N)[C@H](O)[C@H](C)O2)Oc2ccc(cc2Cl)[C@H]1O [VANCOMYCIN]
MIC90 (Staphylococcus aureus [1]): 1 µg/mL (≈ 0.69 µM)
MIC90 (Escherichia coli): > 256 µg/mL
Activity (Staphylococcus aureus [17]): Active
Activity (Staphylococcus aureus [18]): Active
Activity (Staphylococcus aureus [19]): Active
Activity (Staphylococcus aureus [20]): Active

C=CCc1cc(CN2CCC(NC(=O)OC(C)(C)C)CC2)c(O)c(-c2ccc(O)c(CC=C)c2)c1
MIC90 (Staphylococcus aureus [1]): > 256 µg/mL
MIC90 (Escherichia coli): > 256 µg/mL

C=CCc1cc(CN2CCC(N3CCC(N)CC3)CC2)c(O)c(-c2ccc(O)c(CC=C)c2)c1
MIC (Staphylococcus aureus [1]): 8 µg/mL (≈ 17.3 µM)
MIC90 (Staphylococcus aureus [1]): 8 µg/mL (≈ 17.3 µM)
MIC (Escherichia coli): 16 µg/mL (≈ 34.7 µM)
MIC90 (Escherichia coli): 16 µg/mL (≈ 34.7 µM)
MIC (Staphylococcus aureus [8]): 8 µg/mL (≈ 17.3 µM)
MIC (Staphylococcus aureus [9]): 8 µg/mL (≈ 17.3 µM)
MIC (Staphylococcus aureus [10]): 8 µg/mL (≈ 17.3 µM)
MIC (Staphylococcus aureus [11]): 8 µg/mL (≈ 17.3 µM)
MIC (Staphylococcus aureus [12]): 8 µg/mL (≈ 17.3 µM)
MIC (Streptococcus pyogenes): 8 µg/mL (≈ 17.3 µM)
MIC [13]: 8 µg/mL (≈ 17.3 µM)
MIC [14]: 8 µg/mL (≈ 17.3 µM)
MIC (Enterococcus faecalis [15]): 8 µg/mL (≈ 17.3 µM)
MIC (Enterococcus faecalis [16]): 8 µg/mL (≈ 17.3 µM)
MIC (Pseudomonas aeruginosa [2]): 64 µg/mL (≈ 139 µM)
MIC (Pseudomonas aeruginosa [3]): 64 µg/mL (≈ 139 µM)
MIC (Pseudomonas aeruginosa [4]): 64 µg/mL (≈ 139 µM)
MIC (Klebsiella pneumoniae [5]): 8 µg/mL (≈ 17.3 µM)
MIC (Klebsiella pneumoniae [6]): 64 µg/mL (≈ 139 µM)
MIC (Klebsiella pneumoniae [7]): 8 µg/mL (≈ 17.3 µM)
Activity (Staphylococcus aureus [17]): Dose-dependent effect
Activity (Staphylococcus aureus [18]): Dose-dependent effect
Activity (Staphylococcus aureus [21]): 0 log10CFU/ml
Activity (Staphylococcus aureus [22]): 4 - 5 log10CFU/ml
Activity (Staphylococcus aureus [19]): Active
Activity (Staphylococcus aureus [20]): Active

C=CCc1cc(CN2CCCC(NC(=O)OC(C)(C)C)C2)c(O)c(-c2ccc(O)c(CC=C)c2)c1 (stereo not drawn)
MIC90 (Staphylococcus aureus [1]): > 256 µg/mL
MIC90 (Escherichia coli): > 256 µg/mL

C=CCc1cc(CO)c(O)c(-c2ccc(O)c(CC=C)c2)c1
MIC90 (Staphylococcus aureus [1]): 32 µg/mL (≈ 108 µM)
MIC90 (Escherichia coli): > 256 µg/mL

C=CCc1ccc(O)c(-c2ccc(O)c(CC=C)c2)c1 [HONOKIOL]
MIC (Staphylococcus aureus [23]): 50 µg/mL (≈ 188 µM)
MIC (Streptococcus mutans): 10 µg/mL (≈ 37.5 µM)
MIC (Candida albicans): 32 µg/mL (≈ 120 µM)
MIC90 (Staphylococcus aureus [1]): 16 µg/mL (≈ 60.1 µM)
MIC (Escherichia coli): > 256 µg/mL
MIC90 (Escherichia coli): > 256 µg/mL
MIC (Staphylococcus aureus [8]): 16 µg/mL (≈ 60.1 µM)
MIC (Staphylococcus aureus [9]): 16 µg/mL (≈ 60.1 µM)
MIC (Staphylococcus aureus [10]): 16 µg/mL (≈ 60.1 µM)
MIC (Staphylococcus aureus [11]): 16 µg/mL (≈ 60.1 µM)
MIC (Staphylococcus aureus [12]): 16 µg/mL (≈ 60.1 µM)
MIC (Streptococcus pyogenes): 8 µg/mL (≈ 30 µM)
MIC [13]: 16 µg/mL (≈ 60.1 µM)
MIC [14]: 16 µg/mL (≈ 60.1 µM)
MIC (Enterococcus faecalis [15]): 32 µg/mL (≈ 120 µM)
MIC (Enterococcus faecalis [16]): 32 µg/mL (≈ 120 µM)
MIC (Pseudomonas aeruginosa [2]): > 256 µg/mL
MIC (Pseudomonas aeruginosa [3]): > 256 µg/mL
MIC (Pseudomonas aeruginosa [4]): > 256 µg/mL
MIC (Klebsiella pneumoniae [5]): 32 µg/mL (≈ 120 µM)
MIC (Klebsiella pneumoniae [6]): > 256 µg/mL
MIC (Klebsiella pneumoniae [7]): 32 µg/mL (≈ 120 µM)

C=CCc1cc(CO)c(O)c(-c2cc(CO)c(O)c(CC=C)c2)c1
MIC90 (Staphylococcus aureus [1]): 64 µg/mL (≈ 196 µM)
MIC90 (Escherichia coli): > 256 µg/mL

C=CCc1cc(CN2CCN(C(=O)OC(C)(C)C)CC2)c(O)c(-c2ccc(O)c(CC=C)c2)c1
MIC90 (Staphylococcus aureus [1]): > 256 µg/mL
MIC90 (Escherichia coli): > 256 µg/mL

C=CCc1cc(CN2CCCC(C)C2)c(O)c(-c2ccc(O)c(CC=C)c2)c1 (stereo not drawn)
MIC90 (Staphylococcus aureus [1]): > 256 µg/mL
MIC90 (Escherichia coli): > 256 µg/mL

C=CCc1cc(CN2CCN(C(C)C)CC2)c(O)c(-c2ccc(O)c(CC=C)c2)c1
MIC90 (Staphylococcus aureus [1]): > 256 µg/mL
MIC90 (Escherichia coli): 128 µg/mL (≈ 315 µM)

C=CCc1cc(CN2CCN(C(C)=O)CC2)c(O)c(-c2ccc(O)c(CC=C)c2)c1
MIC90 (Staphylococcus aureus [1]): > 256 µg/mL
MIC90 (Escherichia coli): > 256 µg/mL
